PMC10986521 (Microbiology Spectrum, 2024)

Legend:
in vitro = conditions: human
FMDV 3Cpro [1] = target: T1, FMDV 3Cpro (Foot-and-mouth disease virus A, UniProt A0A097I315); assay: cell-based; set-up: species or system FMDV A/IND287/96 strain; conditions: Cell-based assay (EC50)
FMDV 3Cpro [2] = target: T1, FMDV 3Cpro; assay: biochemical; set-up: species or system FMDV A/IND287/96 strain (serotype A); conditions: FRET assay (IC50)

| SMILES | CC50 (in vitro) [nM] | EC50 (FMDV 3Cpro [1]) [nM] | IC50 (FMDV 3Cpro [2]) [nM] |
| --- | --- | --- | --- |
| CC(C)C[C@H](NC(=O)OC[C@@H]1C[C@H]1c1ccccc1)C(=O)N[C@H](C=O)C[C@H]1CCNC1=O [Compound C1c] | > 50000 | 3150 ± 350 | 1000 ± 280 |
| CC(C)C[C@H](NC(=O)OC[C@@H]1C[C@H]1c1ccccc1)C(=O)N[C@@H](C[C@H]1CCNC1=O)C(O)S(=O)(=O)O (some centres unmarked) [Compound C1d] | > 50000 | 3250 ± 630 | 750 ± 70 |
| CC(C)C[C@H](NC(=O)OC[C@H]1[C@H](c2ccccc2)C1(F)F)C(=O)N[C@H](C=O)C[C@H]1CCNC1=O [Compound C2c] | > 50000 | 1200 ± 140 | 1350 ± 640 |
| CC(C)C[C@H](NC(=O)OC[C@H]1[C@H](c2ccccc2)C1(F)F)C(=O)N[C@@H](C[C@H]1CCNC1=O)C(O)S(=O)(=O)O (some centres unmarked) [Compound C2d] | > 50000 | 1450 ± 210 | 1100 ± 570 |
| CC(C)C[C@H](NC(=O)OC[C@@H]1C[C@H]1Cc1ccccc1)C(=O)N[C@H](C=O)C[C@H]1CCNC1=O [Compound C3c] | > 50000 | 2740 ± 2140 | 690 ± 130 |
| CC(C)C[C@H](NC(=O)OC[C@@H]1C[C@H]1Cc1ccccc1)C(=O)N[C@@H](C[C@H]1CCNC1=O)C(O)S(=O)(=O)O (some centres unmarked) [Compound C3d] | > 50000 | 4020 ± 300 | 800 ± 140 |
| CC(C)C[C@H](NC(=O)OC[C@H]1[C@H](Cc2ccccc2)C1(F)F)C(=O)N[C@H](C=O)C[C@H]1CCNC1=O [Compound C4c] | > 50000 | – | 820 ± 150 |
| CC(C)C[C@H](NC(=O)OC[C@H]1[C@H](Cc2ccccc2)C1(F)F)C(=O)N[C@@H](C[C@H]1CCNC1=O)C(O)S(=O)(=O)O (some centres unmarked) [Compound C4d] | > 50000 | 3650 ± 630 | 1350 ± 350 |
| CC(C)C[C@H](NC(=O)OC[C@@H]1C[C@H]1c1cccc(F)c1)C(=O)N[C@H](C=O)C[C@H]1CCNC1=O [Compound C5c] | > 50000 | 2130 ± 490 | 1050 ± 210 |
| CC(C)C[C@H](NC(=O)OC[C@@H]1C[C@H]1c1cccc(F)c1)C(=O)N[C@@H](C[C@H]1CCNC1=O)C(O)S(=O)(=O)O (some centres unmarked) [Compound C5d] | > 50000 | 1890 ± 90 | 950 ± 220 |
| CC(C)C[C@H](NC(=O)OC[C@@H]1C[C@H]1c1cccc(Cl)c1)C(=O)N[C@H](C=O)C[C@H]1CCNC1=O [Compound C6c] | > 50000 | 3300 ± 710 | 800 ± 50 |
| CC(C)C[C@H](NC(=O)OC[C@@H]1C[C@H]1c1cccc(Cl)c1)C(=O)N[C@@H](C[C@H]1CCNC1=O)C(O)S(=O)(=O)O (some centres unmarked) [Compound C6d] | > 50000 | 2850 ± 490 | 580 ± 110 |
| CC(C)C[C@H](NC(=O)OC[C@@H]1C[C@H]1c1ccc(F)cc1)C(=O)N[C@H](C=O)C[C@H]1CCNC1=O [Compound C7c] | > 50000 | 2000 ± 140 | 590 ± 40 |
| CC(C)C[C@H](NC(=O)OC[C@@H]1C[C@H]1c1ccc(F)cc1)C(=O)N[C@@H](C[C@H]1CCNC1=O)C(O)S(=O)(=O)O (some centres unmarked) [Compound C7d] | > 50000 | 2150 ± 350 | 750 ± 70 |
| CC(C)C[C@H](NC(=O)OC[C@@H]1C[C@H]1c1ccc(Cl)cc1)C(=O)N[C@H](C=O)C[C@H]1CCNC1=O [Compound C8c] | > 50000 | – | 1150 ± 80 |
| CC(C)C[C@H](NC(=O)OC[C@@H]1C[C@H]1c1ccc(Cl)cc1)C(=O)N[C@@H](C[C@H]1CCNC1=O)C(O)S(=O)(=O)O (some centres unmarked) [Compound C8d] | > 50000 | – | 550 ± 70 |
| COc1cccc([C@@H]2C[C@H]2COC(=O)N[C@@H](CC(C)C)C(=O)N[C@H](C=O)C[C@H]2CCNC2=O)c1 [Compound C9c] | > 50000 | 2950 ± 280 | 750 ± 140 |
| COc1cccc([C@@H]2C[C@H]2COC(=O)N[C@@H](CC(C)C)C(=O)N[C@@H](C[C@H]2CCNC2=O)C(O)S(=O)(=O)O)c1 (some centres unmarked) [Compound C9d] | > 50000 | 2050 ± 640 | 840 ± 60 |
| COc1ccc([C@@H]2C[C@H]2COC(=O)N[C@@H](CC(C)C)C(=O)N[C@H](C=O)C[C@H]2CCNC2=O)cc1 [Compound C10c] | > 50000 | 3650 ± 1480 | 1250 ± 70 |
| COc1ccc([C@@H]2C[C@H]2COC(=O)N[C@@H](CC(C)C)C(=O)N[C@@H](C[C@H]2CCNC2=O)C(O)S(=O)(=O)O)cc1 (some centres unmarked) [Compound C10d] | > 50000 | 2850 ± 1550 | 1050 ± 210 |
| COc1ccccc1[C@@H]1C[C@H]1COC(=O)N[C@@H](CC(C)C)C(=O)N[C@H](C=O)C[C@H]1CCNC1=O [Compound C11c] | > 50000 | 1080 ± 50 | 950 ± 210 |
| COc1ccccc1[C@@H]1C[C@H]1COC(=O)N[C@@H](CC(C)C)C(=O)N[C@@H](C[C@H]1CCNC1=O)C(O)S(=O)(=O)O (some centres unmarked) [Compound C11d] | > 50000 | 1020 ± 170 | 450 ± 130 |
| COc1ccccc1[C@@H]1C[C@@H]1COC(=O)N[C@@H](CC(C)C)C(=O)N[C@H](C=O)C[C@H]1CCNC1=O [Compound C12c] | > 50000 | 880 ± 250 | 500 ± 140 |

| SMILES | CC50 (in vitro) [nM] | EC50 (FMDV 3Cpro [1]) [nM] | IC50 (FMDV 3Cpro [2]) [nM] |
| --- | --- | --- | --- |
| COc1ccccc1[C@@H]1C[C@@H]1COC(=O)N[C@@H](CC(C)C)C(=O)N[C@@H](C[C@H]1CCNC1=O)C(O)S(=O)(=O)O (some centres unmarked) [Compound C12d] | > 50000 | 1250 ± 70 | 510 ± 60 |
| CCC[C@@H]1C[C@H]1COC(=O)N[C@@H](CC(C)C)C(=O)N[C@H](C=O)C[C@H]1CCNC1=O [Compound C13c] | > 50000 | 2950 ± 210 | 1550 ± 70 |
| CCC[C@@H]1C[C@H]1COC(=O)N[C@@H](CC(C)C)C(=O)N[C@@H](C[C@H]1CCNC1=O)C(O)S(=O)(=O)O (some centres unmarked) [Compound C13d] | > 50000 | 3100 ± 420 | 750 ± 70 |
| CCC[C@@H]1C[C@@H]1COC(=O)N[C@@H](CC(C)C)C(=O)N[C@H](C=O)C[C@H]1CCNC1=O [Compound C14c] | > 50000 | 7050 ± 780 | 630 ± 100 |
| CCC[C@@H]1C[C@@H]1COC(=O)N[C@@H](CC(C)C)C(=O)N[C@@H](C[C@H]1CCNC1=O)C(O)S(=O)(=O)O (some centres unmarked) [Compound C14d] | > 50000 | 6300 ± 850 | 1050 ± 640 |
| CC(C)C[C@H](NC(=O)OC[C@@H]1C[C@H]1C1CCCCC1)C(=O)N[C@H](C=O)C[C@H]1CCNC1=O [Compound C15c] | > 50000 | 450 ± 50 | 380 ± 110 |
| CC(C)C[C@H](NC(=O)OC[C@@H]1C[C@H]1C1CCCCC1)C(=O)N[C@@H](C[C@H]1CCNC1=O)C(O)S(=O)(=O)O (some centres unmarked) [Compound C15d] | > 50000 | 500 ± 110 | 290 ± 80 |
| CC(C)C[C@H](NC(=O)OC[C@@H]1C[C@H]1CC1CCCCC1)C(=O)N[C@H](C=O)C[C@H]1CCNC1=O [Compound C16c] | > 50000 | 900 ± 60 | 360 ± 90 |
| CC(C)C[C@H](NC(=O)OC[C@@H]1C[C@H]1CC1CCCCC1)C(=O)N[C@@H](C[C@H]1CCNC1=O)C(O)S(=O)(=O)O (some centres unmarked) [Compound C16d] | > 50000 | 1210 ± 480 | 330 ± 40 |
| CC(C)C[C@H](NC(=O)OC[C@@H]1C[C@H]1C1CCC(F)(F)CC1)C(=O)N[C@H](C=O)C[C@H]1CCNC1=O [Compound C17c] | > 50000 | > 10000 | 650 ± 70 |
| CC(C)C[C@H](NC(=O)OC[C@@H]1C[C@H]1C1CCC(F)(F)CC1)C(=O)N[C@@H](C[C@H]1CCNC1=O)C(O)S(=O)(=O)O (some centres unmarked) [Compound C17d] | > 50000 | > 10000 | 750 ± 90 |
| CC(C)C[C@H](NC(=O)OCC(C)(C)Sc1ccccc1)C(=O)N[C@@H](C[C@@H]1CCNC1=O)C(=O)C(=O)NC1CC1 [Compound D1e] | > 50000 | 5000 ± 280 | 3750 ± 70 |
| CC(C)C[C@H](NC(=O)OCC(C)(C)Sc1ccccc1)C(=O)N[C@H](C#N)C[C@@H]1CCNC1=O [Compound D1f] | > 50000 | > 10000 | > 25000 |
| [2H]C([2H])(OC(=O)N[C@@H](CC(C)C)C(=O)N[C@H](C=O)C[C@@H]1CCNC1=O)C(C)(C)Sc1ccccc1 [Compound D2c] | > 50000 | 2500 ± 420 | 1520 ± 20 |
| [2H]C([2H])(OC(=O)N[C@@H](CC(C)C)C(=O)N[C@@H](C[C@@H]1CCNC1=O)C(O)S(=O)(=O)[O-])C(C)(C)Sc1ccccc1.[Na+] (some centres unmarked) [Compound D2d] | > 50000 | 2910 ± 430 | 1150 ± 70 |
| CC(C)C[C@H](NC(=O)OCC(C)(C)[S+]([O-])c1ccccc1)C(=O)N[C@H](C=O)C[C@@H]1CCNC1=O (some centres unmarked) [Compound D3c] | > 50000 | > 10000 | 1140 ± 80 |
| CC(C)C[C@H](NC(=O)OCC(C)(C)Sc1cccc(F)c1)C(=O)N[C@@H](C[C@@H]1CCNC1=O)C(O)S(=O)(=O)O (some centres unmarked) [Compound D5d] | > 50000 | – | 810 ± 70 |
| CC(C)C[C@H](NC(=O)OCC(C)(C)Oc1ccccc1)C(=O)N[C@H](C=O)C[C@@H]1CCNC1=O [Compound D10c] | > 50000 | – | 740 ± 80 |
| CC(C)C[C@H](NC(=O)OCC(C)(C)Oc1ccccc1)C(=O)N[C@@H](C[C@@H]1CCNC1=O)C(O)S(=O)(=O)O (some centres unmarked) [Compound D10d] | > 50000 | – | 700 ± 280 |
| CC(C)C[C@H](NC(=O)OCC(C)(O)c1cccc(Cl)c1)C(=O)N[C@H](C=O)C[C@@H]1CCNC1=O (some centres unmarked) [Compound D17c] | > 50000 | – | 2000 ± 710 |
| CC(C)C[C@H](NC(=O)OCC(C)(O)c1cccc(Cl)c1)C(=O)N[C@@H](C[C@@H]1CCNC1=O)C(O)S(=O)(=O)O (some centres unmarked) [Compound D17d] | > 50000 | – | 900 ± 280 |
| CC(C)C[C@H](NC(=O)OCc1ccccc1)C(=O)N[C@@H](C[C@@H]1CCNC1=O)C(=O)C(=O)NC(C)C [Compound E6a] | > 50000 | – | 3900 ± 200 |
| CC(C)C[C@H](NC(=O)OCc1ccccc1)C(=O)N[C@@H](C[C@@H]1CCNC1=O)C(=O)C(=O)NC1CCCCC1 [Compound E6e] | > 50000 | – | 2800 ± 100 |
